Reference: article PMC8136953 (Veterinary Medicine and Science, 2020)
Where two headings read alike, the source gives them in different places.

Legend:
[1] = Minimum plasma concentrations of FLO during multiple oral administrations; type: in vivo; conditions: European seabass (Dicentrarchus labrax), 10 mg/kg/day, multiple oral 10 mg/kg per day for seven consecutive days, 24°C, read-out: Minimum plasma concentrations at the 24 hr sampling intervals
Procedure: The extraction step was repeated twice.
(§1) The flow rate was 1.0 ml/min.
Results are presented as means ± SD (standard deviation of the mean). […] The SPSS version 25.0 (International Business Machines Corporation, Armonk, NY, USA) was used for the statistical analysis.

[2] = Residue depletion in muscle plus skin and withdrawal times after multiple oral dosing; type: in vivo, European seabass Dicentrarchus labrax; conditions: 10 mg kg^−1 day^−1 for 7 days, 24°C, mean ± SD
Procedure: Briefly, muscle plus skin samples were sheared, and subsequently 2 g of ground sample was weighed into a 50 ml centrifuge tube. Ten ml of ethyl acetate were added and the mixture was homogenized with an IKA Ultra‐Turrax T25 Disperser (IKA®‐Werke GmbH & Co. KG, Staufen, Germany) for 30 s at […]. The mixture was agitated for 20 min and then was centrifuged at 3,500 rpm/min for 10 min at 5°C. […] The combined extract was then evaporated to dryness at 45°C under nitrogen stream. Two milliliter of hexane and 1 ml of mobile phase solution were added in the residue. After gentle agitation for 5 min, the mixture was centrifuged (2,150 g for 5 min). The upper layer (hexane) was discarded and the de‐fatting step was repeated. The bottom layer (1 ml) was filtered (0.22 μm nylon filter) and then was subjected to HPLC analysis.
as §1
Withdrawal period was determined at the time when the upper one‐sided 95% tolerance limit for the residue was below the MRL with 95% confidence.

[3] = cited from earlier work
[4] = 0‰, cited from earlier work
[5] = parameters: method as in Wrzesinski et al. (2006); conditions: 0‰, MO, 10 × 12d mg/kg fish, 916 g, 18–20 °C; ref Wrzesinski et al. (2006); cited from earlier work
[6] = parameters: method as in Park et al. (2006); conditions: 0‰, SO, 20 mg/kg fish, 280 g, 24 °C; ref Park et al. (2006); cited from earlier work
[7] = parameters: method as in Yanong et al. (2005); conditions: 0‰, SO, 50 mg/kg fish, 144 g, 23–25 °C; ref Yanong et al. (2005); cited from earlier work
[8] = 0‰, cited from earlier work; for WT: MO, 13 °C
[9] = parameters: method as in de Ocenda et al. (2017); conditions: 35‰, SO‐FA, 100 mg/kg fish, 101 g, 16 °C; ref de Ocenda et al. (2017); cited from earlier work
[10] = parameters: method as in Kverme et al. (2019); conditions: 34‰, SO‐FA, 10 mg/kg fish, 114 g, 12 °C; ref Kverme et al. (2019); cited from earlier work
[11] = parameters: method as in Kosoff et al. (2009); conditions: 26–30‰, MO, 10 × 10d mg/kg fish, 384–426 g, 20–25 °C; ref Kosoff et al. (2009); cited from earlier work
[12] = 28‰, MO, 10 × 10d mg/kg fish, 150 g, 27 °C; ref Di Salvo et al. (2013); cited from earlier work
[13] = 33‰, SO‐FA, cited from earlier work
[14] = parameters: method as in Table 4; conditions: after dietary delivery, different environmental conditions; ref Table 4; cited from earlier work
[15] = 0‰, MO, 10 × 10d mg/kg fish, 444–474 g, 25–30 °C, ref Kosoff et al. (2009)
[16] = 0‰, MO, 15 × 10d mg/kg fish, 100–500 g, 25 °C, ref Bowser et al. (2009)
[17] = 0‰, SO‐FA, 15 mg/kg fish, 500–700 g, 24 °C, ref Rairat et al. (2019)
[18] = 0‰, SO‐FA, 15 mg/kg fish, 500–700 g, 28 °C, ref Rairat et al. (2019)
[19] = 0‰, SO‐FA, 15 mg/kg fish, 500–700 g, 28 °C, ref Rairat et al. (2020)
[20] = 0‰, SO‐FA, 15 mg/kg fish, 500–700 g, 32 °C, ref Rairat et al. (2019)
[21] = 2‰, SO‐FA, 15 mg/kg fish, 500–700 g, 28 °C, ref Rairat et al. (2020)
[22] = 4‰, SO‐FA, 15 mg/kg fish, 500–700 g, 28 °C, ref Rairat et al. (2020)
[23] = 8‰, SO‐FA, 15 mg/kg fish, 500–700 g, 28 °C, ref Rairat et al. (2020)
[24] = 15‰, SO‐FA, 15 mg/kg fish, 500–700 g, 28 °C, ref Rairat et al. (2020)
[25] = MO‐FA, 10 × 5d mg/kg fish, 330 g, 10 °C, ref Yang et al. (2020)
[26] = MO‐FA, 10 × 5d mg/kg fish, 330 g, 25 °C, ref Yang et al. (2020)
[27] = SO‐FA, 10 mg/kg fish, 260 g, 10 °C, ref Yang et al. (2019)
[28] = SO‐FA, 10 mg/kg fish, 260 g, 25 °C, ref Yang et al. (2019)
[29] = SO‐FA, 40 mg/kg fish, 260 g, 25 °C, ref Zhao et al. (2011)
[30] = SO, 10 mg/kg fish, 140 g, 14–15 °C, ref Pourmolaie et al. (2015)
[31] = 24 mg/kg fish, 125 g, 23 °C, ref Feng et al. (2016)
[32] = 5–10 mg/kg fish, 103–301 g, 29 °C, ref Feng et al. (2018)

CS(=O)(=O)c1ccc([C@@H](O)[C@@H](CF)NC(=O)C(Cl)Cl)cc1 [FLO, florfenicol]
concentration at 24 hr [1]: 220 to 550 ng/mL | Muscle plus skin FLO concentration ([2]; 144 hours after last dosing): below LOQ | concentration at 24 hours after last dosing ([2]; European seabass (Dicentrarchus labrax), in vivo, 24 hours after last dosing): 800 ± 1740 ng/g | concentration at 48 hours after last dosing ([2]; European seabass (Dicentrarchus labrax), in vivo, 48 hours after last dosing): 250 ± 640 ng/g | concentration at 72 hours after last dosing ([2]; European seabass (Dicentrarchus labrax), in vivo, 72 hours after last dosing): 40 ± 20 ng/g | concentration at 96 hours after last dosing ([2]; European seabass (Dicentrarchus labrax), in vivo, 96 hours after last dosing): 40 ± 10 ng/g | concentration at 144 hours after last dosing ([2]; European seabass (Dicentrarchus labrax), in vivo, 144 hours after last dosing): 30 ± 10 ng/g | C max [3, 15]: 6500 to 6700 ng/mL | WT [3, 15]: 98 to 146 h | C max [3, 16]: 7100 to 15200 ng/mL | WT [3, 16]: >288 h | t 1/2b [3, 16]: 1.2 to 2.2 h | C max [3, 17]: 23100 ng/mL | T max [3, 17]: 1.4 h | t 1/2b [3, 17]: 12.4 h | C max [3, 18]: 16700 ng/mL | T max [3, 18]: 1.2 h | t 1/2b [3, 18]: 9.5 h | C max [3, 19]: 24000 ng/mL | T max [3, 19]: 0.8 h | t 1/2b [3, 19]: 11.3 h | C max [3, 20]: 16700 ng/mL | T max [3, 20]: 0.8 h | t 1/2b [3, 20]: 7.3 h | t 1/2b ([3]; 2‰, SO‐FA, 15 mg/kg fish, 500–700 g, 28 °C, ref Rairat et al. (2020), 15 mg/kg): 10.7 h | C max [3, 21]: 21600 ng/mL | T max [3, 21]: 0.9 h | C max [3, 22]: 21800 ng/mL | T max [3, 22]: 0.9 h | t 1/2b [3, 22]: 10.6 h | C max [3, 23]: 24400 ng/mL | T max [3, 23]: 0.9 h | t 1/2b [3, 23]: 10.2 h | t 1/2b ([3]; 15‰, SO‐FA, 15 mg/kg fish, 500–700 g, 28 °C, ref Rairat et al. (2020), 15 mg/kg): 8.9 h | C max [3, 24]: 22700 ng/mL | T max [3, 24]: 1.0 h | C max [4, 25]: 4000 ng/mL | t 1/2b [4, 25]: 19.9 h | C max [4, 26]: 1700 ng/mL | t 1/2b [4, 26]: 12.9 h | C max [4, 27]: 2400 ng/mL | T max [4, 27]: 2.8 h | t 1/2b [4, 27]: 22.9 h | C max [4, 28]: 3500 ng/mL | T max [4, 28]: 3.7 h | t 1/2b [4, 28]: 9.6 h | C max [4, 29]: 29300 ng/mL | T max [4, 29]: 1.6 h | t 1/2b [4, 29]: 2.2 h | WT [5]: 96 h | C max [6]: 9600 ng/mL | T max [6]: 8 h | C max [7]: 12300 ng/mL | T max [7]: 3 h | WT ([8]; 10 × 10d mg/kg fish, 220 g, ref Di Salvo et al. (2013)): 108 h | WT ([8]; 15–20 × 10d mg/kg fish, 126–617 g, ref Meinertz et al. (2014)): 360 h | C max [8, 30]: 6100 ng/mL | T max [8, 30]: 9 h | C max [9]: 55400 ng/mL | T max [9]: 12 h | C max [10]: 3600 ng/mL | T max [10]: 21.2 h | t 1/2b [10]: 21.2 h | C max [11]: 1800 to 3500 ng/mL | WT [11]: 17 to 62 h | WT [12]: 95 h | C max [13, 31]: 28000 ng/mL | t 1/2b [13, 31]: 11.6 h | C max [13, 32]: 6000 to 13000 ng/mL | t 1/2b [13, 32]: 8.5 to 9.3 h | Maximum plasma concentration in other farmed fish species [14]: 1.8 to 55 µg/mL
